# Measured values: US9290484B2, “Furyl and thienyl triazole derivatives and therapeutic uses thereof” (University of Medicine and Dentistry of New Jersey, priority 2013, dated 2016)
# How the values were obtained:
# [1] = test system: nitric oxide production induced by gamma interferon in PAM212 keratinocytes; settings: read-out: Nitric oxide inhibition IC50, 100 U/ml gamma interferon, nitrite at 72 hours
# Method: The assay for measurement of anti-inflammatory activity is based on the ability of the cytokine gamma interferon to induce the formation of nitric oxide synthase and subsequently of nitric oxide itself in keratinocytes.
# For each assay the cells were inoculated into a 24-well tissue culture plate at 250,000 cells per well in growth medium. After 24 hours the medium was changed to phenol red and serum-free DMEM containing 100 U/ml of gamma interferon. Nitric oxide production was thereby initiated and at 72 hours post inoculation was quantified spectrophotometrically by measuring the accumulation of nitrite in the culture medium using the Greiss reagent. This was done by drawing an aliquot of the culture medium and mixing it with equal volumes of 1.0% sulfanilamide and 0.1% N-1-naphthylethylene diamine in 50% phosphoric acid. […] Compounds according to the present invention were assayed for their anti-inflammatory activity by examining their ability to suppress nitric oxide production in this assay.
# E. coli = test: microbe, parasite or virus in culture; settings: for Antibacterial MIC E. Coli: serial two-fold dilutions, IA = Inactive
# Method: (§1) Compounds were tested using E. coli, G. vaginalis or S. aureus. Bacteria were grown on appropriate media containing a range of concentrations of the test compounds which were obtained by serial two-fold dilutions. Concentrations used were at least twice the MIC to at least ½ the break point for susceptibility to inhibition. MICs were determined spectrophotometrically by measuring changes in absorbance of bacterial cultures in the absence and presence of the test compounds.
# G. vaginalis = test: Antibacterial MIC, G. vaginalis; type: cell-based, Gardnerella vaginalis; settings: serial two-fold dilutions, IA = Inactive
# Method: as §1
SMILES,IC50 [1] [µM],Antibacterial MIC E. Coli (E. coli) [µg/mL],Antibacterial MIC G. Vaginalis (G. vaginalis) [µg/mL],"MIC (E. coli; Escherichia coli, read-out: Antibacterial MIC E. Coli) [µg/mL]",MIC (G. vaginalis; Gardnerella vaginalis) [µg/mL]
"O=[N+]([O-])c1ccccc1C=CC=Nn1c(S)nnc1-c1cccs1 [Compound 3a, 4-[Imino-(3-(−2-nitrophenyl)-2-ethylenyl)]-3-mercapto-5-(2-thienyl)-4H-1,2,4-triazole]",14,,,,
O=[N+]([O-])c1ccc(C=Nn2c(S)nnc2-c2cccs2)o1 [Compound 3d],,16.0,3.2,,
"O=C1CN(/N=C/c2ccc([N+](=O)[O-])o2)C(=O)N1 [NF, Nitrofurantoin, reference compound]",,,,1.2,11.9
"O=[N+]([O-])c1ccc(C=CC=Nn2c(S)nnc2-c2ccco2)o1 [Compound 3c, 4-[imino-(3-(5-nitro-2-furyl)-2-ethylenyl)]-3-mercapto-5-(2-furoyl)-4H-1,2,4-triazole]",,16.6,16.6,,
